Data as given in patent publication US5922755A, “Immunomodulator, cell adhesion inhibtor, and agent for treating, and preventing autoimmune diseases” (Toyama Chemical Co., Ltd., priority 1993, dated 1999).

Tests used:
[1] = tested on: delayed-type hypersensitivity; assay: Delayed-type hypersensitivity potentiated in mice by cyclophosphamide pretreatment (SRBC-induced paw edema); type: in vivo, BALB/c male mice; settings: Mus musculus, po, 120 h, read-out: Delayed-type paw edema inhibitions; for inhibition in vivo at 100 mg/kg: 100 mg/kg p.o. once a day for 5 days; for inhibition in vivo at 30 mg/kg: 30 mg/kg p.o. once a day for 5 days; for inhibition in vivo at 10 mg/kg: 10 mg/kg p.o. once a day for 5 days
Method: The effect of the test compounds on the delayed-type hypersensitivity. Delayed-type hypersensitivity in potentiated in mice by pretreatment with cyclophosphamide was carried out in accordance with the method of P. H. Lagrange et al., Journal of Experimental Medicine, Vol.139, pp.1529-1539(1974). In brief, BALB/c male mice (8 weeks old, 6 to 8 mice per group) were pretreated with intraperitoneal injection of 75 mg/kg cyclophosphamide. Four days after the injection, 0.2 ml SRBC (sheep red blood cells) suspension (5×10^7 cells/ml) was intravenously sensitized. Three days after the sensitization; delayed-type hypersensitive responses were induced with intradermally injection of 0.05 ml SRBC suspension (8×10^9 cells/ml) to the left hind paw. After 24 hours, the mice were killed and both hind paws were cut off at the ankle to determine the weight of the paw. The SRBC-induced edema was measured as the difference between the left and right paw weights. The inhibitory percentage in paw edema produced by the compound treatment was expressed relative to the edema from the control mice. The test compounds were suspended in 0.5% carboxymethylcellulose (CMC) solution and were administered p.o. once a day for 5 days from 2 days prior to the sensitization. 0.5 % CMC solution instead of the test compounds was administered to the control mice.

[2] = tested on: experimental allergic encepharomyelitis (EAE); assay: Experimental allergic encepharomyelitis (EAE); type: in vivo, Lewis female rats; settings: Rattus norvegicus, po, 432 h, day 0 to 13, cumulative score for 18 days, rats, read-out: Inhibition of clinical score; for inhibition in vivo at 30 mg/kg: 30 mg/kg p.o. once a day; for inhibition in vivo at 100 mg/kg: 100 mg/kg p.o. once a day
Method: Effect of the test compounds on experimental allergic encep-haromyelitis. Experimental allergic encepharomyelitis (EAE) is a prototype for cell-mediated autoimmune diseases, and has been widely used as an animal model of multiple sclerosis. According to the method described by Deguchi et al., Brain and Nerve, Vol.42, pp.391-397(1990), EAE was induced by using Lewis female rats (5 rats per group). […] 0.5 % CMC solution instead of the test compound was administered to the control rats. The cumulative score of the symptoms for 18 days was obtained and the inhibitory percentage in the cumulative score produced by the test compound group was expressed relative to the cumulative score from the control group.

[3] = tested on: very late antigen-4 (VLA-4); assay: Expression of VLA-4 on lymphocytes from EAE rats (flow cytometry); type: in vivo, rat; settings: 100 mg/kg, ten days after immunization, control 29.9
Method: Effect of the compounds on the expression of cell adhesion molecule (very late antigen-4:VLA-4) in EAE rats.
VLA-4 is one of the cell adhesion molecules which may be involved in the migration of lymphocytes. The effect of the compounds on the expression of VLA-4 on lymphocytes from EAE rats was examined. […] The leukocyte fraction was isolated from 5ml of the blood by density gradient centrifugation. 5×10^5of the leukocytes were suspended in 0.5 ml of phosphate buffered saline (PBS) containing 0.1 % bovine serum albumin and then reacted with 5 μl of mouse anti-rat VLA-4 antibo dy. After incubation at 4° C. for 1 hour, the cells were reacted with fluorescence isothiocyanate-conjugated sheep anti-mouse immunoglobulin for a further 30 min. The cells were washed with PBS and were analyzed on flow cytometry. The lymphocyte population was isolated to construct on based a forward and 90° light scatter. The results were expressed as a percentage of VLA-4 positive cell number to the lymphocyte number.

CD11b = assay: Enhanced expression of CD11b in HL-60 cells stimulated by PMA (flow cytometry); type: cell-based, human; settings: 10 μg/ml; HL-60, 24 hours; mean ± S.E., 6 measurements; control 82.2 ± 4.9
Method: Effect of the test compounds on the enhanced expression of cell adhesion molecule CD11b in HL-60 (human promyelocytic leukemia cell line)stimulatedby phorbol myristate acetate (PMA).
CD11b is the α-chain of cell adhesion molucule Mac-1, which is expressed in the activation of monocytes. The effect of the test compounds on the expression of CD11b on monocytes, HL-60 cells was analyzed. In brief, 5×10^6 HL-60 cells were suspended in 2 ml of RPMI-1640 containing 10% fetal calf serum (FCS) in each well of a 12-well multiplate, and then PMA ([…] final concentration) and the test compound were added to themedium. After incubation at 37° C. for 24 hours in an atmosphere containig 5% CO2, the cells were collected and was hed with PBS. 3×10^3 HL-60 cells were resuspended in 300 μl PBS(containing 1% FCS) and incubated with 5 μl of phycoerythrin-conjugated mouse anti-human CD11b antibody. After 1 hour incubation at 4° C., the cells were washed with PBS. The cells were analyzed on flow cytometry, and the results were expressed as the enhanced percentage of CD11b positive cells in the treated group relative to the PMA-untreated group.

[4] = tested on: hemolytic plaque forming cell (PFC) response; assay: Hemolytic plaque forming cell (PFC) response, SRBC sensitization; type: in vivo, BDF1 male mice; settings: for PFC No./spleen: mean ± S.E.
[5] = 2 × 10^6 cells sensitization, 1 mg/kg p.o. for 3 days
[6] = 2 × 10^6 cells sensitization, 10 mg/kg p.o. for 3 days
[7] = 2 × 10^6 cells sensitization, 100 mg/kg p.o. for 3 days
[8] = 2 × 10^8 cells sensitization, 1 mg/kg p.o. for 3 days
[9] = 2 × 10^8 cells sensitization, 10 mg/kg p.o. for 3 days
[10] = 2 × 10^8 cells sensitization, 100 mg/kg p.o. for 3 days

Cc1oc2cc(NS(C)(=O)=O)c(Oc3ccccc3)cc2c(=O)c1C(N)=O [compound No. 5, 3-carbamoyl-2-methyl-7-methylsulfonylamino-6-phenoxy-4H-1-benzopyran-4-one]
inhibition in vivo at 100 mg/kg [1]: 16%

Cc1cc(=O)c2cc(Oc3ccccc3)c(NS(C)(=O)=O)cc2o1 [compound No. 11, 2-methyl-7-methyl sulfonylamino-6-phenoxy-4H-1-benzopyran-4-one]
inhibition in vivo at 30 mg/kg [2]: 52%

CSc1coc2cc(NS(C)(=O)=O)c(Oc3ccccc3)cc2c1=O [compound No. 8, 3-methylthio-7-methylsulfonyl amino-6-phenoxy-4H-1-benzopyran-4-one]
inhibition in vivo at 100 mg/kg [1]: 21%
inhibition in vivo at 30 mg/kg [2]: 17%

CS(=O)(=O)Nc1cc2occc(=O)c2cc1Oc1ccc(F)cc1F [compound No. 3, 6-(2,4-difluorophenoxy)-7-methylsulfonylamino-4H-1-benzopyran-4-one]
inhibition in vivo at 30 mg/kg [1]: 48%
inhibition in vivo at 30 mg/kg [2]: 86%

CS(=O)(=O)Nc1cc2occ(C(N)=O)c(=O)c2cc1Oc1ccccc1 [compound No. 4, 3-carbamoyl-7-methylsulfonylamino-6-phenoxy-4H-1-benzopyran-4-one]
inhibition in vivo at 100 mg/kg [1]: 41%
inhibition in vivo at 30 mg/kg [2]: 50%

CS(=O)(=O)Nc1cc2occ(NC=O)c(=O)c2cc1Nc1ccccc1F [compound No. 12, 6-(2-fluorophenylamino)-3-formylamino-7-methylsulfonylamino-4H-1-benzopyran-4-one]
inhibition in vivo at 30 mg/kg [2]: 67%

CC(C)(S)[C@@H](N)C(=O)O [D-PENICILLAMINE, D-penicillamine, reference compound]
inhibition in vivo at 100 mg/kg [1]: -3%
inhibition in vivo at 100 mg/kg [2]: -10%

O=C(O)c1cc(/N=N/c2ccc(S(=O)(=O)Nc3ccccn3)cc2)ccc1O [SULFASALAZINE, Sulfasalazine, reference compound]
inhibition in vivo at 100 mg/kg [1]: 5%
inhibition in vivo at 300 mg/kg ([2]; 300 mg/kg p.o. once a day): 1%

CS(=O)(=O)Nc1cc2occ(C(N)=O)c(=O)c2cc1Nc1ccc(F)cc1F [compound No. 10, 3-carbamoyl-6-(2,4-difluorophenylamino)-7-methylsulfonylamino-4H-1-benzopyran-4-one]
inhibition in vivo at 100 mg/kg [1]: 20%
inhibition in vivo at 30 mg/kg [2]: 42%

CS(=O)(=O)Nc1cc2occ(NC=O)c(=O)c2cc1Nc1ccc(F)cc1F [compound No. 9, 6-(2,4-difluorophenylamino)-3-formylamino-7-methylsulfonylamino-4H-1-benzopyran-4-one]
inhibition in vivo at 100 mg/kg [1]: 28%
inhibition in vivo at 30 mg/kg [2]: 50%

CS(=O)(=O)Nc1cc2occ(NC=O)c(=O)c2cc1Oc1ccccc1 [compound No. 1, 3-formylamino-7-methylsulfonylamino-6-phenoxy-4H-1-benzopyran-4-one]
inhibition in vivo at 10 mg/kg [1]: 12%
inhibition in vivo at 30 mg/kg [1]: 27%
inhibition in vivo at 100 mg/kg [1]: 39%
inhibition in vivo at 1 mg/kg ([2]; 1 mg/kg p.o. once a day): 21%
inhibition in vivo at 100 mg/kg [2]: 67%
Percentage of VLA-4 positive cell (mean) [3]: 12.0 PERCENTAGE
CD11b increased rate of expression (CD11b): 49.9 ± 1.8%
PFC number, percentage of control group [4, 5]: 145 PERCENTAGE
PFC No./spleen [4, 5]: 7.06 ± 1.17 ×10^3
PFC number, percentage of control group [4, 6]: 146 PERCENTAGE
PFC No./spleen [4, 6]: 7.13 ± 0.52 ×10^3
PFC number, percentage of control group [4, 7]: 111 PERCENTAGE
PFC No./spleen [4, 7]: 5.40 ± 0.49 ×10^3
PFC number, percentage of control group [4, 8]: 963 PERCENTAGE
PFC No./spleen [4, 8]: 231 ± 18 ×10^3
PFC number, percentage of control group [4, 9]: 92 PERCENTAGE
PFC No./spleen [4, 9]: 221 ± 17 ×10^3
PFC number, percentage of control group [4, 10]: 54 PERCENTAGE
PFC No./spleen [4, 10]: 129 ± 20 ×10^3

C[C@]12C=CC(=O)C=C1CC[C@@H]1[C@@H]2[C@@H](O)C[C@@]2(C)[C@H]1CC[C@]2(O)C(=O)CO [PREDNISOLONE, prednisolone, reference compound]
inhibition in vivo at 10 mg/kg [1]: 44%
PFC number, percentage of control group [4, 6]: 81 PERCENTAGE
PFC No./spleen [4, 6]: 3.97 ± 0.78 ×10^3
PFC number, percentage of control group [4, 9]: 7 PERCENTAGE
PFC No./spleen [4, 9]: 17 ± 3 ×10^3

CN(C=O)c1coc2cc(NS(C)(=O)=O)c(Oc3ccccc3)cc2c1=O [compound No. 6, 3-(N-formyl-N-methyl)amino-7-methylsulfonylamino-6-phenoxy-4H-1-benzopyran-4-one]
inhibition in vivo at 100 mg/kg [1]: 17%
inhibition in vivo at 30 mg/kg [2]: 66%

CS(=O)(=O)Nc1cc2occ(C(=O)O)c(=O)c2cc1Oc1ccccc1 [compound No. 7, 3-carboxy-7-methylsulfonylamino-6-phenoxy-4H-1-benzopyran-4-one]
inhibition in vivo at 100 mg/kg [1]: 16%
inhibition in vivo at 30 mg/kg [2]: 50%

CS(=O)(=O)Nc1cc2occc(=O)c2cc1Oc1ccccc1 [compound No. 2, 7-methylsulfonylamino-6-phenoxy-4H-1-benzopyran-4-one]
inhibition in vivo at 100 mg/kg [1]: 17%
